According to publication PMC10916352, “Safety Evaluation of a Prototypical Diazirine-Based Covalent Crosslinker and Molecular Adhesive” (International Journal of Toxicology, 2023):
Counter-ions that a name gives are not always drawn.

Tests used:
[1] = system: Salmonella typhimurium TA98; assay: Bacterial reverse mutation test (Ames), strain TA98; assay type: cell-based; settings: positive control tested singular
Protocol: (§1) The reverse mutation test was performed to determine the potential of BondLynx and/or its metabolites to induce reverse mutations at the histidine locus of Salmonella typhimurium.[26],[27] The test employs strains of Salmonella typhimurium carrying mutations in the genes involved in histidine production, such that they are only able to grow in histidine supplemented culture media. Upon exposure to mutagenic materials, these mutations may be reversed, thereby restoring the ability to grow in histidine-free media. When grown in the presence of the test compound on media with a small amount of histidine, tester strains grow briefly to allow the opportunity for mutation, followed by proliferation of revertant colonies upon depletion of the provided histidine. Thus, the number of revertant colonies following incubation is indicative of the ability of the test compound to induce mutations.
(§2) Tests were performed on two strains of the bacteria (TA98 and TA100) in the absence and presence of an exogenous mammalian metabolic activation system (5% v/v S9). Positive controls and BondLynx were suspended in dimethyl sulfoxide (DMSO) for testing, and DMSO served as the vehicle control. Positive controls consisted of 2-nitrofluorene (10 μg/plate) for the TA98 strain without S9, methyl mesylate (650 μg/plate) for the TA100 strain without S9, and 2-aminoanthracene for both strains with S9 (1 μg/plate for TA98 and 5 μg/plate for TA100). Eight concentrations of BondLynx (1.7, 5.4, 17, 52, 164, 512, 1600 and 5000 μg/plate) were tested in triplicate. The vehicle control was tested in triplicate and the positive controls were tested singular.
(§3) Test solutions were prepared by pre-incubating .1 mL fresh bacterial culture (10^9 cells/mL), .1 mL of a BondLynx dilution or control solution, and .5 mL of S9 mix or .1 M phosphate buffer for 30 min before adding to 3 mL of molten (45 ± 2°C) top agar. After mixing in a vortex, agar solutions were poured onto selective agar plates. Upon solidification, the prepared plates were inverted and incubated at 37.0 ± 1.0°C for 48 ± 4 h. Following incubation, revertant colonies were counted with a Sorcerer Colony Counter. The condition of the bacterial background lawn was evaluated macroscopically and/or microscopically using a dissecting microscope when considered necessary.

[2] = system: Salmonella typhimurium TA100; assay: Bacterial reverse mutation test (Ames), strain TA100; assay type: cell-based; settings: positive control tested singular
Protocol: as §1, §2, §3

[3] = system: Balb/c 3T3 fibroblasts (clone 31); assay: 3T3 Neutral Red uptake cytotoxicity and phototoxicity assay; settings: for Corrected Mean OD540: 8 wells; for Photo Irritation Factor (PIF): non-irradiated IC50 divided by irradiated IC50
Protocol: (§4) The 3T3 Neutral Red uptake assay was used to evaluate the phototoxicity of BondLynx. The NRU assay makes use of Neutral Red dye, a weak cationic dye that penetrates the cell membrane by non-ionic passive diffusion and accumulates in lysosomes. Cytotoxicity of the test material is evaluated by measuring the OD540 to assess the uptake of Neutral Red dye.[28],[29] […] By measuring cytotoxicity in the absence vs presence of UV and visible light, the phototoxicity of the test material can be determined.[30],[31]
(§5) Cells were routinely trypsinized and passaged, at least once weekly, with a split ratio 1:3 to 1:4 to achieve a near confluent culture.
(§6) Stock solutions of both controls were freshly prepared on the day of testing. The vehicle control was 1% DMSO in EBSS for the positive control, EBSS for the negative control, and .5% ethanol in EBSS for BondLynx. BondLynx was dissolved in ethanol for testing. […] All controls and BondLynx were handled in the dark and tested in 8-fold.
(§7) In preparation for testing, cultures of 3T3 fibroblasts were trypsinized and resuspended in culture medium. […] A total of six plates were prepared in this manner – two each for the positive control, the negative control, and BondLynx. Following incubation, the cell culture medium was removed, and the wells washed with DPBS (Dulbecco’s phosphate-buffered saline). A 200 μL aliquot of each dilution of the test compound (BondLynx or a control) was added the first eight columns, and the appropriate vehicle control was added to the last four columns. All plates were incubated an additional 60 min before irradiating one plate for each test compound (+Irr) in a solar simulator with a WG320 nm filter for 22 min (equivalent to 5 J/cm^2 UV-A), while the second plate for each test compound (–Irr) was kept in the dark at room temperature. Subsequently, the test solutions were removed from the plates, and the cells were washed once with DPBS and suspended in 200 μL of supplemented DMEM to incubate for an additional 20-24 h.
(§8) Immediately following incubation, the confluency of each plate was visually assessed, and the culture medium was replaced with 100 μL of Neutral Red dye (50 μg/mL). The plates were incubated another 3.5 h before removing the dye, washing with 150 μL of DPBS, and shaking for 20-40 min in 150 μL Neutral Red destain solution (ethanol:acetic acid:distilled water, 50:1:49). The optical density at 540 nm was measured for each well and corrected by subtracting the appropriate blank.

[4] = system: EPISKIN Small Model (human epidermis model); assay: In vitro skin irritation test, MTT viability; assay type: cell-based; settings: 15 min exposure, 42 h post-incubation
Protocol: Tests were performed in triplicate. […] Following exposure, samples were rinsed with phosphate buffered saline until no test item remain, dried carefully, and placed in a new 2 mL well with pre-warmed Maintenance Medium to incubate for 42 h. After incubation, cell culture inserts were dried carefully, transferred into a 12-well plate prefilled with 2 mL MTT in phosphate buffered saline (.3 mg/mL), and incubated for 3 h. Tissue samples were then dried, and a biopsy punch was taken. The epidermis was separated from the collagen matrix, and both were extracted with 500 μL isopropanol and stored for 70 h refrigerated. The amount of extracted formazan was measured in duplicate for each sample by the OD570.

[5] = 3T3 Neutral Red uptake cytotoxicity and phototoxicity assay; settings: mouse, Viability (%)
Protocol: as §4, §5, §6, §7, §8

Nc1ccc2cc3ccccc3cc2c1 [2-aminoanthracene, reference compound]
Revertant Colonies (With S9) ([1]; TA98, with S9, 1 μg/plate): 657
Revertant Colonies (With S9) ([2]; TA100, with S9, 5 μg/plate): 363

O=[N+]([O-])c1ccc2c(c1)Cc1ccccc1-2 [2-nitrofluorene, reference compound]
Revertant Colonies (Without S9) ([1]; TA98, without S9, 10 μg/plate): 1962

COS(C)(=O)=O [Methyl mesylate, methyl mesylate, reference compound]
Revertant Colonies (Without S9) ([2]; TA100, without S9, 650 μg/plate): 646

CCCCCCCCCCCCOS(=O)(=O)[O-].[Na+] [SDS, sodium dodecyl sulphate]
Viability (%) ([3]; +Irr, 0.1 μg/mL): 100.0%
Corrected Mean OD540 ([3]; +Irr, 0.1 μg/mL): 1.17
Viability (%) ([3]; +Irr, 0.316 μg/mL): 99.1%
Corrected Mean OD540 ([3]; +Irr, 0.316 μg/mL): 1.16
Viability (%) ([3]; +Irr, 1 μg/mL): 101.7%
Corrected Mean OD540 ([3]; +Irr, 1 μg/mL): 1.19
Viability (%) ([3]; +Irr, 3.16 μg/mL): 100.0%
Corrected Mean OD540 ([3]; +Irr, 3.16 μg/mL): 1.17
Viability (%) ([3]; +Irr, 10 μg/mL): 95.7%
Corrected Mean OD540 ([3]; +Irr, 10 μg/mL): 1.12
Viability (%) ([3]; +Irr, 31.6 μg/mL): 18.8%
Corrected Mean OD540 ([3]; +Irr, 31.6 μg/mL): 0.22
Viability (%) ([3]; +Irr, 100 μg/mL): 0.6%
Corrected Mean OD540 ([3]; +Irr, 100 μg/mL): 0.007
Viability (%) ([3]; +Irr, 316 μg/mL): 0.5%
Corrected Mean OD540 ([3]; +Irr, 316 μg/mL): 0.006
IC50 (50% inhibition of Neutral Red uptake), presence of irradiation ([3]; +Irr, 5 J/cm^2 UV-A): 21.65 µg/mL
Photo Irritation Factor (PIF) [3]: 1.14
IC50 (50% inhibition of Neutral Red uptake), absence of irradiation ([3]; –Irr): 27.4 µg/mL
Viability (%) ([3]; –Irr, 0.1 μg/mL): 102.0%
Corrected Mean OD540 ([3]; –Irr, 0.1 μg/mL): 1.25
Viability (%) ([3]; –Irr, 0.316 μg/mL): 99.6%
Corrected Mean OD540 ([3]; –Irr, 0.316 μg/mL): 1.22
Viability (%) ([3]; –Irr, 1 μg/mL): 101.2%
Corrected Mean OD540 ([3]; –Irr, 1 μg/mL): 1.24
Viability (%) ([3]; –Irr, 3.16 μg/mL): 101.2%
Corrected Mean OD540 ([3]; –Irr, 3.16 μg/mL): 1.24
Viability (%) ([3]; –Irr, 10 μg/mL): 98.8%
Corrected Mean OD540 ([3]; –Irr, 10 μg/mL): 1.21
Viability (%) ([3]; –Irr, 31.6 μg/mL): 26.1%
Corrected Mean OD540 ([3]; –Irr, 31.6 μg/mL): 0.32
Viability (%) ([3]; –Irr, 100 μg/mL): 0.2%
Corrected Mean OD540 ([3]; –Irr, 100 μg/mL): 0.003
Viability (%) ([3]; –Irr, 316 μg/mL): 0.04%
Corrected Mean OD540 ([3]; –Irr, 316 μg/mL): 0.0005
Mean ± SD (OD570 corrected) [4]: .039 ± .005
Cell Viability (%) ([4]; relative to phosphate buffered saline): 4.0%

c1ccc2cc3ccccc3cc2c1 [anthracene]
viability at 82 min, 0.01 μg/mL ([5]; +Irr): 98.1%
viability at 82 min, 0.0316 μg/mL ([5]; +Irr): 60.3%
viability at 82 min, 0.1 μg/mL ([5]; +Irr): 3.9%
viability at 82 min, 0.316 μg/mL ([5]; +Irr): 4.1%
viability at 82 min, 1 μg/mL ([5]; +Irr): 4.2%
viability at 82 min, 3.16 μg/mL ([5]; +Irr): 4.2%
viability at 82 min, 10 μg/mL ([5]; +Irr): 3.3%
viability at 82 min, 31.6 μg/mL ([5]; +Irr): 8.01%
viability at 82 min, 0.01 μg/mL ([5]; –Irr): 103%
viability at 82 min, 0.0316 μg/mL ([5]; –Irr): 102%
viability at 82 min, 0.1 μg/mL ([5]; –Irr): 102%
viability at 82 min, 0.316 μg/mL ([5]; –Irr): 101%
viability at 82 min, 1 μg/mL ([5]; –Irr): 100%
viability at 82 min, 3.16 μg/mL ([5]; –Irr): 101%
viability at 82 min, 10 μg/mL ([5]; –Irr): 101%
viability at 82 min, 31.6 μg/mL ([5]; –Irr): 103%
Corrected Mean OD540 ([3]; +Irr, 0.01 μg/mL): 1.09
Corrected Mean OD540 ([3]; +Irr, 0.0316 μg/mL): 0.67
Corrected Mean OD540 ([3]; +Irr, 0.1 μg/mL): 0.043
Corrected Mean OD540 ([3]; +Irr, 0.316 μg/mL): 0.046
Corrected Mean OD540 ([3]; +Irr, 1 μg/mL): 0.047
Corrected Mean OD540 ([3]; +Irr, 3.16 μg/mL): 0.047
Corrected Mean OD540 ([3]; +Irr, 10 μg/mL): 0.037
Corrected Mean OD540 ([3]; +Irr, 31.6 μg/mL): 0.089
IC50 ([3]; Mus musculus, BALB/c3T3, light or radiation study, read-out: IC50 (50% inhibition of Neutral Red uptake), presence of irradiation): 0.03 µg/mL
Photo Irritation Factor (PIF) [3]: > 31.6
IC50 (50% inhibition of Neutral Red uptake), absence of irradiation ([3]; –Irr): no IC50
Corrected Mean OD540 ([3]; –Irr, 0.01 μg/mL): 1.15
Corrected Mean OD540 ([3]; –Irr, 0.0316 μg/mL): 1.14
Corrected Mean OD540 ([3]; –Irr, 0.1 μg/mL): 1.14
Corrected Mean OD540 ([3]; –Irr, 0.316 μg/mL): 1.13
Corrected Mean OD540 ([3]; –Irr, 1 μg/mL): 1.12
Corrected Mean OD540 ([3]; –Irr, 3.16 μg/mL): 1.13
Corrected Mean OD540 ([3]; –Irr, 10 μg/mL): 1.13
Corrected Mean OD540 ([3]; –Irr, 31.6 μg/mL): 1.15
